# Reference: ChEMBL document CHEMBL1201862, “PubChem BioAssay data set” (2004)
# Calls of active or inactive are those of the source.
# Assays:
# [1] = target: T1, Endoribonuclease toxin MazF (Escherichia coli K-12, UniProt P0AE70); assay: substrate-only fluorescence increase artefacts – biochemical, single-stranded RNase substrate, counter-screen for MazEF activator project, dose response (AID 588502); type: functional
# T1 sequence (P0AE70 whole entry): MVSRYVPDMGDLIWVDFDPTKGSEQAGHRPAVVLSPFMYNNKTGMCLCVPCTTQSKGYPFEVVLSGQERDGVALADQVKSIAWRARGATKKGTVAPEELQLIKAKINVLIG
# [2] = target: T1, Endoribonuclease toxin MazF; assay: activation of MazEF endoribonuclease cleavage – biochemical, fluorescence, single-stranded RNA substrate, uHTS hits, dose response (AID 588481); type: functional
# [3] = target: T2, Alkaline phosphatase, tissue-nonspecific isozyme (Homo sapiens, UniProt P05186); assay: potency against alkaline phosphatase TNAP – biochemical, luminescent, dose response, SAR follow-up (AID 1056)
# T2 sequence (P05186 whole entry): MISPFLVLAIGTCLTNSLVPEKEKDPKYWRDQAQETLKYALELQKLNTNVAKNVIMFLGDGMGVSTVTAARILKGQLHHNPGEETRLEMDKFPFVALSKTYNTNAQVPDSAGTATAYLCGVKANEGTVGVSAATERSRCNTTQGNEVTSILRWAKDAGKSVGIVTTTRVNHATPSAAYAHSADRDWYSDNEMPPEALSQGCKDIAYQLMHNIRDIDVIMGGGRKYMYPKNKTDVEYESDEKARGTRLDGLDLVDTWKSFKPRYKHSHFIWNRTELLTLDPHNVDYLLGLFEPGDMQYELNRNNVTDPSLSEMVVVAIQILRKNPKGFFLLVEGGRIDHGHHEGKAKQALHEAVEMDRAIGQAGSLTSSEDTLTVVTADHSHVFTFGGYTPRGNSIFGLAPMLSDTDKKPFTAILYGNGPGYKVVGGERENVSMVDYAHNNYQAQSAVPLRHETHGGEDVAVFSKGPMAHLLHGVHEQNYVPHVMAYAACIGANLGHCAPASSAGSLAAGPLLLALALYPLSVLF
# [4] = target: Glyceraldehyde-3-phosphate dehydrogenase (Homo sapiens, UniProt P04406)
# Chain of Glyceraldehyde-3-phosphate dehydrogenase (P04406 whole entry): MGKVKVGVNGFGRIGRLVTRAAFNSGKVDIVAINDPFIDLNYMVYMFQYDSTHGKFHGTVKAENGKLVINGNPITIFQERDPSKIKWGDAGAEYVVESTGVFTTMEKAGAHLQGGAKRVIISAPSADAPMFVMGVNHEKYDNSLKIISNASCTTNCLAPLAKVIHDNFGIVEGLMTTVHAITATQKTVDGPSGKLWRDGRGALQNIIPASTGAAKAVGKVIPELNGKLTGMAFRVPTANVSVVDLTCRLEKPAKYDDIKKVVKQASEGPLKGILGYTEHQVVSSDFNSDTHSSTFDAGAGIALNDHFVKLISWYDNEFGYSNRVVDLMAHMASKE
# HEK293 [5] = assay: cells; details: Homo sapiens
# HEK293 [6] = assay: cells; details: Homo sapiens; remark: listed apart in the source
# [7] = viability of HCT116 lacking mutant beta-catenin – cell-based, human colon tumor, dose response (AID 1045); type: functional;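 note: HCT116 colon tumor cells with beta catenin knocked out; cells exposed to compound for 60 hours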
# [8] = viability of PTEN-deleted HCT116 cells – cell-based, HCT116 PTEN knockout, dose response (AID 1047); type: functional;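 note: HCT116 colon tumor cells with PTEN knocked out; cells exposed to compound for 60 hours before readout; potency for loss of cell viability measured by luminescence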
# [9] = target: T3, High affinity choline transporter 1 (Homo sapiens, UniProt Q9GZV3); assay: human choline transporter blockers, potency – cell-based, 5-point CRC, membrane potential dye, dose response (AID 504840); type: functional
# T3 sequence (Q9GZV3 whole entry): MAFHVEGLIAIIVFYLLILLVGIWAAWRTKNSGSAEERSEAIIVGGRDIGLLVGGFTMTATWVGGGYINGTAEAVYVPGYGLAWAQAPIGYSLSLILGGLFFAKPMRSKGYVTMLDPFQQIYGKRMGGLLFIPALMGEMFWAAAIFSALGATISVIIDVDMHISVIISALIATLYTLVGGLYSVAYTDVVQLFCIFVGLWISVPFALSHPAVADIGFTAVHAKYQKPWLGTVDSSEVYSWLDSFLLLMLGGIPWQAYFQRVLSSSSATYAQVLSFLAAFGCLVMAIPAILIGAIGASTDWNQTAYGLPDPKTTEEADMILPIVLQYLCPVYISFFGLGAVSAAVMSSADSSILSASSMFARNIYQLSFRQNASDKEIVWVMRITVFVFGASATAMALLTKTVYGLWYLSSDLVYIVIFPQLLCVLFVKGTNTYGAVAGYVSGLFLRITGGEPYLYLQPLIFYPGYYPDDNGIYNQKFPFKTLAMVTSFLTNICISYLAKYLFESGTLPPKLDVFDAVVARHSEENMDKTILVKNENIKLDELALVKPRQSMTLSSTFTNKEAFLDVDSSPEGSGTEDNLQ
# Melanocortin receptor 4 = Melanocortin receptor 4 (Homo sapiens, UniProt P32245); assay: inhibitors of MC4R cAMP signaling – cell-based, TR-FRET, biased antagonists, dose response (AID 602298); type: functional;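 note: antagonist potency against agonist-stimulated cAMP production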
# Chain of Melanocortin receptor 4 (P32245 whole entry): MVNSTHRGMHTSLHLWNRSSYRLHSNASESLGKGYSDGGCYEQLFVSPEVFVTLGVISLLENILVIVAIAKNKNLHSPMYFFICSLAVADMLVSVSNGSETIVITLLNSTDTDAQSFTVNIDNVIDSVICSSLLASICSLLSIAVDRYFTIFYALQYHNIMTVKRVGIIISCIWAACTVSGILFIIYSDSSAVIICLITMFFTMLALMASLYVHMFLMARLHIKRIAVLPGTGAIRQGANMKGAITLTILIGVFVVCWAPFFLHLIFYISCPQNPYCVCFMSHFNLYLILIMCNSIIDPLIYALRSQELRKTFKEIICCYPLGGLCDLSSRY
# [10] = cAMP pathway inhibition in counterscreen cell line – TR-FRET cAMP detection, counter-screen for MC4R biased antagonist project, dose response (AID 602305); type: functional, cell-based;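 note: U2OS cells stimulated with forskolin near its EC80 as the cAMP inducer; potency is for inhibition of forskolin-stimulated cAMP signaling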
# [11] = target: Peroxisome proliferator-activated receptor gamma/Nuclear receptor coactivator 3 (Homo sapiens, UniProt P37231); assay: TR-FRET dose response biochemical High Throughput Screening assay for agonists of the steroid receptor coactivator 3 (SRC-3) recruitment by the peroxisome proliferator-activated receptor gamma (PPAR gamma): non-selective agonists. [Related pubchem assays: 1301 (Confirmation screen.), 1048 (Primary screen.)]; type: functional
# Chain of Peroxisome proliferator-activated receptor gamma/Nuclear receptor coactivator 3 (P37231 whole entry): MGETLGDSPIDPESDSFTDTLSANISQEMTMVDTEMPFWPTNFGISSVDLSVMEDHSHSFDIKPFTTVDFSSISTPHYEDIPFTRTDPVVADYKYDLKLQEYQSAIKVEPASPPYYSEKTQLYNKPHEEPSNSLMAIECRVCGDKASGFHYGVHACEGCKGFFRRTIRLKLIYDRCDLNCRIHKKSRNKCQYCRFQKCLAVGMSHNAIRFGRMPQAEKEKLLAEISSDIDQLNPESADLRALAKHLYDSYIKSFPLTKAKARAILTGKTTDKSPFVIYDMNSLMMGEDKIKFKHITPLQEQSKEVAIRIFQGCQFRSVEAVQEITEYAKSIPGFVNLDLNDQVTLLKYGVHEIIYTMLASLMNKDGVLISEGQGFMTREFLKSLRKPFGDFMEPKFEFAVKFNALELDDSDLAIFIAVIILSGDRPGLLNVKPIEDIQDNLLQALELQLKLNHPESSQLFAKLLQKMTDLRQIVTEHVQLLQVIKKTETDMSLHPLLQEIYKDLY
# Chain of Peroxisome proliferator-activated receptor gamma/Nuclear receptor coactivator 3 (Q9Y6Q9 whole entry, further chain): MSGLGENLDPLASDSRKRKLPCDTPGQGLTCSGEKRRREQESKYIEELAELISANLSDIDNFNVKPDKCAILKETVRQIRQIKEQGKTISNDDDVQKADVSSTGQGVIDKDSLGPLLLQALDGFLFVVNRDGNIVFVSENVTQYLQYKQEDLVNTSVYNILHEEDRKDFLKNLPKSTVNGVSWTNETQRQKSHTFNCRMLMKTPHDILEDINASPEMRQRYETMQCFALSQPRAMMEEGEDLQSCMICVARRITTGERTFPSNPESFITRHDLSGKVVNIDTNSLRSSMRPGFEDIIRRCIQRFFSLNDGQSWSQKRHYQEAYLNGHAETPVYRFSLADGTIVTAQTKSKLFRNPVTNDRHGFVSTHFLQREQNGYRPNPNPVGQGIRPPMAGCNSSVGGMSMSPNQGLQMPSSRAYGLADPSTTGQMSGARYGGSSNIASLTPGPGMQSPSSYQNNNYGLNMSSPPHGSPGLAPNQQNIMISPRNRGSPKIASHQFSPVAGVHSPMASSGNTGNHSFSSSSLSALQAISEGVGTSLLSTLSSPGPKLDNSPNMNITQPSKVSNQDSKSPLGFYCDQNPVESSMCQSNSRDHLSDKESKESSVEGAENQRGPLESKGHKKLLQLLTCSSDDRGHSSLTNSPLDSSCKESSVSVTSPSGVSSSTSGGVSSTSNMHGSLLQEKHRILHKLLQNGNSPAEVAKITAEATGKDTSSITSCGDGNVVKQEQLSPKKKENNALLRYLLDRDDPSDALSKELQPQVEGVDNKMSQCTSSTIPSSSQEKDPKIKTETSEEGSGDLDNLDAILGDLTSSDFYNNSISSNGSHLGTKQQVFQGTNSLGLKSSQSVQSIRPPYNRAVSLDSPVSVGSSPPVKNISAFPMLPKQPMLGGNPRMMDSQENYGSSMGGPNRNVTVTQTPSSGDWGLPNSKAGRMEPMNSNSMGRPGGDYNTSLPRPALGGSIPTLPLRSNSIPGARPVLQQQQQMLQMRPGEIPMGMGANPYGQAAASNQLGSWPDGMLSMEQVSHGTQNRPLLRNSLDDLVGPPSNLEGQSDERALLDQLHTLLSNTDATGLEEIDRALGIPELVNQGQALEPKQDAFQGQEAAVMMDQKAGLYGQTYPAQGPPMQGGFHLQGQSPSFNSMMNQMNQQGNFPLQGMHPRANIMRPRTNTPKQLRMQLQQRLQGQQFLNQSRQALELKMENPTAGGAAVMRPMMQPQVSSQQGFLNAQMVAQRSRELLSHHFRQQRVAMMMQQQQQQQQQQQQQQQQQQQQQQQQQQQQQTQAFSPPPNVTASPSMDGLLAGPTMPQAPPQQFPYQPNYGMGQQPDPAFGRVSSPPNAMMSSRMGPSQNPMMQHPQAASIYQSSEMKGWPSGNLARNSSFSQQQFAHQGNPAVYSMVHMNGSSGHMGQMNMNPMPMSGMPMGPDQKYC
# [12] = target: Peroxisome proliferator-activated receptor gamma/Nuclear receptor coactivator 2 (Homo sapiens, UniProt P37231); assay: (§1) TR-FRET dose response biochemical High Throughput Screening assay for agonists of the steroid receptor coactivator 2 (SRC-2) recruitment by the peroxisome proliferator-activated receptor gamma (PPAR gamma): non-selective agonists. [Related pubchem assays: 1297, 1032 ]; type: functional
# Chain of Peroxisome proliferator-activated receptor gamma/Nuclear receptor coactivator 2 (P37231 whole entry): as the sequence (P37231 whole entry) above
# Chain of Peroxisome proliferator-activated receptor gamma/Nuclear receptor coactivator 2 (Q15596 whole entry, further chain): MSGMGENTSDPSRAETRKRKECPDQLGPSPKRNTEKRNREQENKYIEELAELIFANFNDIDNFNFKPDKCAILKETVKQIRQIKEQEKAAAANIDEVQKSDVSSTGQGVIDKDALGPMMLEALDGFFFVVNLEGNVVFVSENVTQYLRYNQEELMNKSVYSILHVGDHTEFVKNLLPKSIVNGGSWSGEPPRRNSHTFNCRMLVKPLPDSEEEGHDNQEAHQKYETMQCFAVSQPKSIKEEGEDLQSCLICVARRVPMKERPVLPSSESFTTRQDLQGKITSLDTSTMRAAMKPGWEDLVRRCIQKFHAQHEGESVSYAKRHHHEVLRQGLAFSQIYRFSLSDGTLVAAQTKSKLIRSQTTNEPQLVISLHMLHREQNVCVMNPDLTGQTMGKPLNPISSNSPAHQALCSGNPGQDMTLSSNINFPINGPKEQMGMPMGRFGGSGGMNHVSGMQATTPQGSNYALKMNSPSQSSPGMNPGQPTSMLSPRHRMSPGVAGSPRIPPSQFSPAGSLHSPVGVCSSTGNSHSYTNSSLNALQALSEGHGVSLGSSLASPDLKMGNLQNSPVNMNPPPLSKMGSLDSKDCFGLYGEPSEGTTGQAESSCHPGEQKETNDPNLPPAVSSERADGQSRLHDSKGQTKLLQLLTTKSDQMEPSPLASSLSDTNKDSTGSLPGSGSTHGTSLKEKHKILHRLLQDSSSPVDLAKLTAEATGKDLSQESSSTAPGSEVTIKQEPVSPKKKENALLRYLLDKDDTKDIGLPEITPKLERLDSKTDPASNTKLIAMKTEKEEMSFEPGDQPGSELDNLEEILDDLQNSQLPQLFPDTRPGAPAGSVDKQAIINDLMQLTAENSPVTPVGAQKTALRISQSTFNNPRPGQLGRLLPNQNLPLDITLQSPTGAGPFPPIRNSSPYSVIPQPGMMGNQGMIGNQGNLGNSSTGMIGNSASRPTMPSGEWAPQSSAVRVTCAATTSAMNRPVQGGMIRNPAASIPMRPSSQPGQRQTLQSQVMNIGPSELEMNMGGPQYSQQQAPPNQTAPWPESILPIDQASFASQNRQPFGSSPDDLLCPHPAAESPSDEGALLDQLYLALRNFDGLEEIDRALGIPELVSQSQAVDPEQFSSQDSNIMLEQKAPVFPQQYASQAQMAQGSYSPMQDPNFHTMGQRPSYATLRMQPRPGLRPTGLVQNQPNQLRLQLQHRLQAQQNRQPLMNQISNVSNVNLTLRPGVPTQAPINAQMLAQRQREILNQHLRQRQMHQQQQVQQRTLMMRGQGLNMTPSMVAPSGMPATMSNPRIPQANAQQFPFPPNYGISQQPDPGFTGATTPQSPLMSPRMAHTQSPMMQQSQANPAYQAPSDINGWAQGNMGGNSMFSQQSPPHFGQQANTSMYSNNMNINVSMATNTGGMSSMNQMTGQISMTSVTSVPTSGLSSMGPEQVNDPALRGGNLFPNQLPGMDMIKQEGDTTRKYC
# [13] = target: Peroxisome proliferator-activated receptor gamma/Nuclear receptor coactivator 1 (Homo sapiens, UniProt P37231); assay: as §1, with “1 (SRC-1)” for “2 (SRC-2)”, “assays (depositor defined):AID1300, AID1808, AID504735, AID631]” for “assays: 1297, 1032 ]”; type: protein assay
# [14] = NIH3T3 cell viability loss – ATP luminescence, mouse fibroblasts, counter-screen, dose response (AID 2010); type: functional, cell-based;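 note: cells exposed to compound for about 90 hours before reading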
# [15] = Trypanosoma cruzi growth suppression in host cells – NIH3T3 host cells, beta-gal luminescence, confirmation (AID 2044); type: functional, cell-based;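 note: intracellular parasites grown in NIH/3T3 mouse fibroblasts as host cells; luminescent beta-galactosidase reporter signal from transgenic T. cruzi replicating inside host cells; inhibitors lower the luminescence signal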
# Cysteine protease ATG4B = target: T4, Cysteine protease ATG4B (Homo sapiens, UniProt Q9Y4P1); type: functional;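 note: Fluorescence-based dose-response confirmation assay measuring inhibition of ATG4B activity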
# T4 sequence (Q9Y4P1 whole entry): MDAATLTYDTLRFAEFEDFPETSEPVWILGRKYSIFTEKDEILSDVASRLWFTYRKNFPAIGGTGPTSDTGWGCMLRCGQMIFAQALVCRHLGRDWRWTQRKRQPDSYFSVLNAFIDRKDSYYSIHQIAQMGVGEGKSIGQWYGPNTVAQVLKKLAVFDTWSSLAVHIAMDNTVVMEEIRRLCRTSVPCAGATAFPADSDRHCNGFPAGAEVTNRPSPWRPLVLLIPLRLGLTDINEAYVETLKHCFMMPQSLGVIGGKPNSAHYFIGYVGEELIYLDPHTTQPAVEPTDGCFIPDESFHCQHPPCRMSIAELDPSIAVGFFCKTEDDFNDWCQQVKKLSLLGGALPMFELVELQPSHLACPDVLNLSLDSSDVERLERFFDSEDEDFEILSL
# Phospholipase A2 = Phospholipase A2 (Homo sapiens, UniProt P04054); type: functional;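 note: confirmatory dose-response counterscreen on phospholipase A2, testing hits that came from an ultra-high-throughput screen for ATG4B inhibitors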
# Chain of Phospholipase A2 (P04054 whole entry): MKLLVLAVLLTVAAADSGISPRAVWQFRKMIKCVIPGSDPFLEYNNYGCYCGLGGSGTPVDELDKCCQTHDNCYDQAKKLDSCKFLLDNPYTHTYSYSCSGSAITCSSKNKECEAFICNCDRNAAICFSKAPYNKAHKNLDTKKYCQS
# Tumor necrosis factor = Tumor necrosis factor (Homo sapiens, UniProt P01375); assay: analog potency on TNFa NF-kB signaling – cell-based, revised, SAR follow-up (AID 2337); type: functional
# Chain of Tumor necrosis factor (P01375 whole entry, the tested form may be a part): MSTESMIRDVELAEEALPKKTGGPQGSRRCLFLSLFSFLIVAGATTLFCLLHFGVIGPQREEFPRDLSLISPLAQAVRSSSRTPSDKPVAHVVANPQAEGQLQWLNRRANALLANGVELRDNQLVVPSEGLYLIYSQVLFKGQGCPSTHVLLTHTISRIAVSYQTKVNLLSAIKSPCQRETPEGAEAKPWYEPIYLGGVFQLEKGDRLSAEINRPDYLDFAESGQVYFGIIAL
# [16] = target: T5, Nucleotide-binding oligomerization domain-containing protein 1 (Homo sapiens, UniProt Q9Y239); assay: blockers of NOD1 pathway activity – revised, SAR follow-up (AID 2333); type: functional
# T5 sequence (Q9Y239 whole entry): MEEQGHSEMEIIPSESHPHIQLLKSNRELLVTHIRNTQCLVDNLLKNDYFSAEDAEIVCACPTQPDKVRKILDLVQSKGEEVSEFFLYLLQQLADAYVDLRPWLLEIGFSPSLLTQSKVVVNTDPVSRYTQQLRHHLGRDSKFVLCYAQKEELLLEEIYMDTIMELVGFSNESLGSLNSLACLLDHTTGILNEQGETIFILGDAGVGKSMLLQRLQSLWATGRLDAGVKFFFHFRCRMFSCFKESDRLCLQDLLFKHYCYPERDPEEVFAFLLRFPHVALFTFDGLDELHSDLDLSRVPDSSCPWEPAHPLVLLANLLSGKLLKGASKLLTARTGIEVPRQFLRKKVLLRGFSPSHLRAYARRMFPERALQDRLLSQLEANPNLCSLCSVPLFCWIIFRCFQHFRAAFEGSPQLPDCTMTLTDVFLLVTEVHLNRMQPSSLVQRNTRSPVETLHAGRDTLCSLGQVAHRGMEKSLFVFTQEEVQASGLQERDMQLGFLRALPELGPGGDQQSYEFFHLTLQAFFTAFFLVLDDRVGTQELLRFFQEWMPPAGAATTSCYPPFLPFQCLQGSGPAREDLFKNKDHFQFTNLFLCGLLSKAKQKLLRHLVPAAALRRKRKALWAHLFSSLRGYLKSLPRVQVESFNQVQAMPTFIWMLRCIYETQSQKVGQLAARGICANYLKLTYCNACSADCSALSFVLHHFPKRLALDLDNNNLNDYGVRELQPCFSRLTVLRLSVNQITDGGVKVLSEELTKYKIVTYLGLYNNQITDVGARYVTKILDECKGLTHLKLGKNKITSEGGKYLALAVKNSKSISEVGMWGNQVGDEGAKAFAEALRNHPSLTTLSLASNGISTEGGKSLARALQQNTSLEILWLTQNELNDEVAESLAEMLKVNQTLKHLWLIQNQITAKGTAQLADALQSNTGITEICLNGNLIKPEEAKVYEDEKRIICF
# HEK293 [17] = assay: cells; details: Homo sapiens; remark: listed apart in the source
# [18] = target: T6, Heat shock factor protein 1 (Mus musculus, UniProt P38532); assay: enhancement of HSF1-driven luciferase signal – cell-based, NIH3T3, luminescence, dose retest, confirmation (AID 435004); type: functional;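 note: stress induced by proteasome inhibitor MG132 added 30 min after compound; luciferase reporter driven by HSF1 response element in NIH3T3 cells; actives raise luminescence as potentiators of the MG132 stress response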
# T6 sequence (P38532 whole entry): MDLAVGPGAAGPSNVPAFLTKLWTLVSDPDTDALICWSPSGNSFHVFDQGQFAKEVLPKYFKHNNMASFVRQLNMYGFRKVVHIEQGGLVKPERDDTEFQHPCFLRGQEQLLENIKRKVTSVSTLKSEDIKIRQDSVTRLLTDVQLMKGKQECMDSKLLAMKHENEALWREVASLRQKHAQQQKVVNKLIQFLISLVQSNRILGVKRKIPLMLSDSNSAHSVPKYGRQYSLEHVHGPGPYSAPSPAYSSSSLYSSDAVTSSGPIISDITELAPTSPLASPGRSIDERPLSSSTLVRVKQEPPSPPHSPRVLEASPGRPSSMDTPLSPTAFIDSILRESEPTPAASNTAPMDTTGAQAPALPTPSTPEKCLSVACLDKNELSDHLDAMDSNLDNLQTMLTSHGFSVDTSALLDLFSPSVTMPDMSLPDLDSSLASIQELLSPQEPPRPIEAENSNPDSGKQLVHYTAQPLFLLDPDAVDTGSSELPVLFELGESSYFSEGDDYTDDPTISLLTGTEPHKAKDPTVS
compound,measurement,setting,value
Cn1c(=O)c2c(ncn2CC(=O)Nc2nc(-c3ccccc3Cl)cs2)n(C)c1=O,EC50,[1],> 99 µM (inactive)
same,EC50,[2],> 99 µM (inactive)
COc1cccc(Cc2nnc(N3C(=O)c4ccccc4C3=O)[nH]2)c1,IC50,[3],1.19 µM (active)
same,IC50,[4],> 100 µM (not active)
N#CC1=C(N)S[C@H](C(=O)C23CC4CC(CC(C4)C2)C3)[C@H]1c1ccncc1,EC50,HEK293 [5],> 59.7 µM (inactive)
same,EC50,HEK293 [6],> 59.7 µM (inactive)
CCOC(=O)c1c(NC(=O)CSc2nnc(-c3c[nH]c4ccccc34)n2CCOC)sc2c1CCCCC2,EC50,HEK293 [5],> 59.7 µM (inactive)
same,EC50,[7],26.3 µM (active)
same,EC50,[8],21.3 µM (active)
same,EC50,HEK293 [6],> 59.7 µM (inactive)
CCn1c(=O)cc(OCC(=O)NC(C)c2ccc3c(c2)OCCO3)c2ccccc21 (configuration not stated),IC50,[9],15.8 µM (active)
CCOC(=O)c1cnc2ccc(OCC)cc2c1N(C)Cc1ccccc1,IC50,Melanocortin receptor 4,> 64.6 µM (inactive)
same,IC50,[10],> 64.6 µM (inactive)
CCOc1ccc(NC(=O)CNC(=O)c2nn(-c3ccc(OC)cc3)c(=O)c3ccccc23)cc1,EC50,[1],> 99 µM (inactive)
same,EC50,[2],48.2 µM (inactive)
O=C(O)c1cc(-c2ccc(Cl)s2)nc2ccccc12,EC50,[11],> 79.4 µM (not active)
same,IC50,Melanocortin receptor 4,> 64.6 µM (inactive)
same,EC50,[12],20.7 µM (not active)
same,IC50,[10],> 64.6 µM (inactive)
same,EC50,[13],42.7 µM (inactive)
COc1ccc(-c2cc(C(=O)Nc3cc(OC)cc(C(=O)Nc4cccc(C(F)(F)F)c4)c3)[nH]n2)cc1,IC50,Melanocortin receptor 4,> 64.6 µM (inactive)
same,IC50,[10],> 64.6 µM (inactive)
CC(C)(C)N1C(=O)[C@H]2[C@@H](c3ccc(Br)cc3)N3C(=O)N(c4cccc(Br)c4)C(=O)[C@@]3(Cc3ccccc3)[C@H]2C1=O,EC50,HEK293 [5],> 59.7 µM (inactive)
same,EC50,[14],> 60 µM (not active)
same,EC50,[15],2.32 µM (active)
same,EC50,HEK293 [6],> 59.7 µM (inactive)
Cc1ccc(C(=O)Nc2nc(-c3ccco3)c(-c3ccco3)s2)o1,IC50,Cysteine protease ATG4B,9.23 µM (active)
same,IC50,Phospholipase A2,5.79 µM (active)
CCOC(=O)C1CCCN(C(=O)c2csc(-c3ccc4c(c3)CCO4)n2)C1 (configuration not stated),IC50,[9],13.2 µM (active)
Cc1cccc(C)c1-n1nnnc1SCC(=O)c1c(N)n(C2CC2)c(=O)[nH]c1=O,EC50,[1],> 99 µM (inactive)
same,EC50,[2],> 99 µM (inactive)
CC1CCc2c(sc(NC(=O)c3ccc(Br)cc3)c2C(=O)O)C1 (configuration not stated),IC50,Tumor necrosis factor,6.82 µM (active)
same,IC50,[16],0.375 µM (active)
same,IC50,HEK293 [17],4.72 µM (active)
O=C(Nc1sc2c(c1C(=O)O)CCCC2)c1ccc(Br)cc1,IC50,Tumor necrosis factor,2.25 µM (active)
same,IC50,[16],0.77 µM (active)
same,IC50,HEK293 [17],> 20 µM (inactive)
COc1ccc(F)c(-c2nc(CN3CCN(c4ncnc5ccccc45)CC3)c(C)o2)c1,IC50,Tumor necrosis factor,3.8 µM (active)
same,IC50,[16],3.93 µM (active)
same,IC50,HEK293 [17],13.7 µM (active)
CCOC(=O)c1ccc(/N=c2\sc(C(=O)OC)cc(=O)n2Cc2ccco2)cc1,IC50,Melanocortin receptor 4,> 7.17 µM (active)
same,EC50,HEK293 [5],> 59.6 µM (inactive)
same,IC50,[10],> 64.5 µM (inactive)
same,EC50,[7],5.88 µM (active)
same,EC50,[18],16.8 µM (active)
same,EC50,[8],7.5 µM (active)
same,EC50,HEK293 [6],> 59.6 µM (inactive)
